The results in this text go back to ChEMBL document CHEMBL4049445.

SMILES strings stand for the structures. The source made the active and inactive calls. The calls are words filed in the database; no cut-off is given here.

The test deals with Influenza A virus. Nature of the test: Antiviral activity against Influenza A virus A/PR/8/34 expressing amantadine-resistant M2 proton channel S31N mutant infected in MDCK cells. Format: functional, cell-based. The conditions noted are these: A/Puerto Rico/8/1934(H1N1).

As to `CN1CCC(CC2C3CC4CC(C3)CC2C4)CC1` (configuration not stated), the outcome was inactive. In the case of `OC1(CC2CCNCC2)C2CC3CC(C2)CC1C3` (configuration not stated) it was “inactive”. For the compound `N=C(N)N1CCC(C23CC4CC(CC(C4)C2)C3)CC1`, the result was inactive.

`CCN1CCC(C2C3CC4CC(C3)CC2C4)CC1` (configuration not stated): the result was inactive.

As to `N=C(N)N1CCC(C=C2C3CC4CC(C3)CC2C4)CC1`, the outcome was inactive. To `C1CC(C23CC4CC(CC(C4)C2)C3)CCN1` belongs “inactive”. To `N=C(N)N1CCC(CC2C3CC4CC(C3)CC2C4)CC1` (configuration not stated) belongs “inactive”; to `OC1(C2CCNCC2)C2CC3CC(C2)CC1C3` (configuration not stated), “inactive”; to `C1CCC(C23CC4CC(CC(C4)C2)C3)NC1` (configuration not stated), “inactive”. In the case of `C(=C1C2CC3CC(C2)CC1C3)C1CCNCC1` it was “inactive”; in that of `C1CC(CC2C3CC4CC(C3)CC2C4)CCN1` (configuration not stated), “inactive”. Regarding `C1CC(C2C3CC4CC(C3)CC2C4)CCN1` (configuration not stated), the result was inactive.
